From US20160367623A1, “AGONISTS OF GUANYLATE CYCLASE USEFUL FOR THE TREATMENT OF GASTROINTESTINAL DISORDERS, INFLAMMATION, CANCER AND OTHER DISORDERS” (priority 2015, published 2016)
Bridge positions count the residues as written; N and C are the ends. Ends that are not written are not given here.

Tested on: patients with chronic idiopathic constipation (CIC)
Experiment: Second phase 3 CIC trial: change from baseline in stool consistency (BSFS)
Assay type: in vivo, human
Settings: 3 mg
[1] = Post-Treatment Week 13, All Randomized (includes Duplicate Patients)
[2] = Post-Treatment Week 13, ITT Population
[3] = Post-Treatment Week 13, ITT Population-Excluding Duplicate Patients
[4] = Post-Treatment Week 14, All Randomized (includes Duplicate Patients)
[5] = Post-Treatment Week 14, ITT Population
[6] = Post-Treatment Week 14, ITT Population-Excluding Duplicate Patients
[7] = Week 1, All Randomized (includes Duplicate Patients)
[8] = Week 1, ITT Population-Excluding Duplicate Patients
[9] = Week 2, All Randomized (includes Duplicate Patients)
[10] = Week 2, ITT Population-Excluding Duplicate Patients
[11] = Week 3, All Randomized (includes Duplicate Patients)
[12] = Week 3, ITT Population-Excluding Duplicate Patients
[13] = Week 4, All Randomized (includes Duplicate Patients)
[14] = Week 4, ITT Population-Excluding Duplicate Patients
[15] = Week 5, All Randomized (includes Duplicate Patients)
[16] = Week 5, ITT Population-Excluding Duplicate Patients
[17] = Week 6, All Randomized (includes Duplicate Patients)
[18] = Week 6, ITT Population-Excluding Duplicate Patients

Question: Which results are given for “Asn^1-Asp^2-Glu^3-Cys^4-Glu^5-Leu^6-Cys^7-Val^8-Asn^9-Val^10-Ala^11-Cys^12-Thr^13-Gly^14-Cys^15-Leu^16 (NDECELCVNVACTGCL; disulfide 4-12, 7-15) [Plecanatide, uroguanylin analogue, guanylate cyclase-C agonist; (C4:C12, C7:C15) bicycle peptide]”?
Answer: Change from Baseline in Stool Consistency, Difference from Placebo [1]: 0.24; Change from Baseline in Stool Consistency, LS Mean (SE) [1]: 1.23 (0.069); Change from Baseline in Stool Consistency, Mean (SD) [1]: 1.27 (1.358); Change from Baseline in Stool Consistency, Difference from Placebo [2]: 0.23; Change from Baseline in Stool Consistency, LS Mean (SE) [2]: 1.22 (0.071); Change from Baseline in Stool Consistency, Mean (SD) [2]: 1.25 (1.368); Change from Baseline in Stool Consistency, Difference from Placebo [3]: 0.23; Change from Baseline in Stool Consistency, LS Mean (SE) [3]: 1.22 (0.072); Change from Baseline in Stool Consistency, Mean (SD) [3]: 1.25 (1.374); Change from Baseline in Stool Consistency, Difference from Placebo [4]: 0.15; Change from Baseline in Stool Consistency, LS Mean (SE) [4]: 1.14 (0.071); Change from Baseline in Stool Consistency, Mean (SD) [4]: 1.19 (1.393); Change from Baseline in Stool Consistency, Difference from Placebo [5]: 0.14; Change from Baseline in Stool Consistency, LS Mean (SE) [5]: 1.15 (0.073); Change from Baseline in Stool Consistency, Mean (SD) [5]: 1.19 (1.402); Change from Baseline in Stool Consistency, Difference from Placebo [6]: 0.14; Change from Baseline in Stool Consistency, LS Mean (SE) [6]: 1.15 (0.074); Change from Baseline in Stool Consistency, Mean (SD) [6]: 1.18 (1.408); Change from Baseline in Stool Consistency, Difference from Placebo [7]: 0.68; Change from Baseline in Stool Consistency, LS Mean (SE) [7]: 1.26 (0.070); Change from Baseline in Stool Consistency, Mean (SD) [7]: 1.38 (1.464); Change from Baseline in Stool Consistency, Difference from Placebo (Week 1, ITT Population): 0.68; Change from Baseline in Stool Consistency, LS Mean (SE) (Week 1, ITT Population): 1.28 (0.072); Change from Baseline in Stool Consistency, Mean (SD) (Week 1, ITT Population): 1.39 (1.479); Change from Baseline in Stool Consistency, Difference from Placebo [8]: 0.69; Change from Baseline in Stool Consistency, LS Mean (SE) [8]: 1.30 (0.073); Change from Baseline in Stool Consistency, Mean (SD) [8]: 1.39 (1.469); Change from Baseline in Stool Consistency, Difference from Placebo [9]: 0.66; Change from Baseline in Stool Consistency, LS Mean (SE) [9]: 1.35 (0.070); Change from Baseline in Stool Consistency, Mean (SD) [9]: 1.46 (1.566); Change from Baseline in Stool Consistency, Difference from Placebo (Week 2, ITT Population): 0.66; Change from Baseline in Stool Consistency, LS Mean (SE) (Week 2, ITT Population): 1.38 (0.073); Change from Baseline in Stool Consistency, Mean (SD) (Week 2, ITT Population): 1.46 (1.583); Change from Baseline in Stool Consistency, Difference from Placebo [10]: 0.65; Change from Baseline in Stool Consistency, LS Mean (SE) [10]: 1.39 (0.073); Change from Baseline in Stool Consistency, Mean (SD) [10]: 1.46 (1.578); Change from Baseline in Stool Consistency, Difference from Placebo [11]: 0.52; Change from Baseline in Stool Consistency, LS Mean (SE) [11]: 1.41 (0.070); Change from Baseline in Stool Consistency, Mean (SD) [11]: 1.52 (1.570); Change from Baseline in Stool Consistency, Difference from Placebo (Week 3, ITT Population): 0.51; Change from Baseline in Stool Consistency, LS Mean (SE) (Week 3, ITT Population): 1.41 (0.073); Change from Baseline in Stool Consistency, Mean (SD) (Week 3, ITT Population): 1.51 (1.573); Change from Baseline in Stool Consistency, Difference from Placebo [12]: 0.51; Change from Baseline in Stool Consistency, LS Mean (SE) [12]: 1.42 (0.074); Change from Baseline in Stool Consistency, Mean (SD) [12]: 1.52 (1.578); Change from Baseline in Stool Consistency, Difference from Placebo [13]: 0.58; Change from Baseline in Stool Consistency, LS Mean (SE) [13]: 1.45 (0.071); Change from Baseline in Stool Consistency, Mean (SD) [13]: 1.56 (1.509); Change from Baseline in Stool Consistency, Difference from Placebo (Week 4, ITT Population): 0.55; Change from Baseline in Stool Consistency, LS Mean (SE) (Week 4, ITT Population): 1.45 (0.073); Change from Baseline in Stool Consistency, Mean (SD) (Week 4, ITT Population): 1.55 (1.494); Change from Baseline in Stool Consistency, Difference from Placebo [14]: 0.54; Change from Baseline in Stool Consistency, LS Mean (SE) [14]: 1.45 (0.074); Change from Baseline in Stool Consistency, Mean (SD) [14]: 1.56 (1.504); Change from Baseline in Stool Consistency, Difference from Placebo [15]: 0.68; Change from Baseline in Stool Consistency, LS Mean (SE) [15]: 1.53 (0.071); Change from Baseline in Stool Consistency, Difference from Placebo (Week 5, ITT Population): 0.68; Change from Baseline in Stool Consistency, LS Mean (SE) (Week 5, ITT Population): 1.55 (0.074); Change from Baseline in Stool Consistency, Mean (SD) (Week 5, ITT Population): 1.69 (1.462); Change from Baseline in Stool Consistency, Difference from Placebo [16]: 0.67; Change from Baseline in Stool Consistency, LS Mean (SE) [16]: 1.56 (0.075); Change from Baseline in Stool Consistency, Mean (SD) [16]: 1.70 (1.469); Change from Baseline in Stool Consistency, Difference from Placebo [17]: 0.74; Change from Baseline in Stool Consistency, LS Mean (SE) [17]: 1.55 (0.072); Change from Baseline in Stool Consistency, Difference from Placebo (Week 6, ITT Population): 0.74; Change from Baseline in Stool Consistency, LS Mean (SE) (Week 6, ITT Population): 1.56 (0.074); Change from Baseline in Stool Consistency, Mean (SD) (Week 6, ITT Population): 1.67 (1.533); Change from Baseline in Stool Consistency, Difference from Placebo [18]: 0.73; Change from Baseline in Stool Consistency, LS Mean (SE) [18]: 1.56 (0.075); Change from Baseline in Stool Consistency, Mean (SD) [18]: 1.67 (1.529)
